How the values were obtained:
dnaE = dnaE expression after anti-dnaE oligonucleotide treatment (immunoblotting); type: cell-based, C. difficile; settings: FIG. 2
Protocol: Studies were performed to identify C. difficile gene targets with the least pathway redundancy, while ensuring ASO specificity (oligonucleotides ≥25 bp in length). […] Five candidate C. difficile gene targets were identified, and dnaE (which encodes the alpha subunit of DNA polymerase III, and is invariant in C. difficile strains) harbored the most favorable translation inhibition potential (confirmed via immunoblotting; FIG. 2). Thus, it was used in further experiments. Specifically, the ASO formulation is a 2′-O-methyl phosphorothioate (PTO) gapmer, which has a good safety record (Shen et al., Antisense Nucleic Acid Drug Dev. 2001 August; 11(4):257-64; Chen et al., Transplantation. 2005 Feb. 27; 79(4):401-8; Nomura et al., Int J Pharm. 2018 Aug. 25; 547(1-2):556-562.).

[1] = test system: Ribotype 027 C. difficile strain; test: In vitro anti-C. difficile activity / MIC; type: cell-based; settings: FIG. 3 legend
Protocol: (§1) Nanocomplex CAB-964 was complexed to the anti-dnaE ASO (SEQ ID NO:1) as previously described (Hegarty et al., Int J Nanomedicine. 2016 Aug. 1; 11:3607-19; Sharma et al., J Antibiot (Tokyo). 2018 August; 71(8):713-721; herein incorporated by reference in its entirety) and the resulting nanocomplex is called SRPNT. Multiple in vitro tests were performed with SRPNT as well as its parent empty CAB, with CAB CYDE-21 and its derived nanocomplex as comparators. For the pathogen (Hegarty 2016, supra; Sharma 2018, supra) a whole genome-sequenced Ribotype 027 C. difficile strain associated with severe, complicated CDI in human subjects was used.

Water solubility = type: physicochemical; settings: room temperature
E. faecalis = test: In vitro growth of commensal bacteria: E. faecalis; type: cell-based; settings: only at >17× the dosing range to treat C. difficile
Protocol: as §1

B. fragilis = test: In vitro growth of commensal bacteria: B. fragilis; type: cell-based; settings: only at >17× the dosing range to treat C. difficile
Protocol: as §1

[2] = test system: cultured human intestinal epithelial cells; test: Toxicity to cultured human intestinal epithelial cells; type: cell-based; settings: at the doses used for C. difficile inhibition
E. coli = test: In vitro growth of commensal bacteria: E. coli; type: cell-based; settings: only at >17× the dosing range to treat C. difficile
Protocol: as §1

5′-G*T*T*C*A*T*TAAA TCACC TCC T*G*C*T*T*T*A3′ (GTTCATTAAATCACCTCCTGCTTT; listed as DNA, chemistry not fully specified) [anti-dnaE oligonucleotide, 2′-O-methyl phosphorothioate (PTO) gapmer ASO targeting dnaE]
dnaE expression (dnaE): decreases dnaE expression

c1cc2c([n+](CCCCCCCCCC[n+]3cccc4c3CCCC4)c1)CCCC2 [CAB-964]
anti-C. difficile activity [1]: no anti-C. difficile activity | solubility (Water solubility): 26 mg/mL | growth reduction of E. faecalis (E. faecalis): 7% | growth reduction of B. fragilis (B. fragilis): 7% | toxicity to cultured human intestinal epithelial cells [2]: non-toxic | growth reduction of E. coli (E. coli): 7%

— patent US20230405130A1, “COMPOSITIONS AND METHODS FOR MODIFYING BACTERIAL GENE EXPRESSION” (priority 2020, published 2023)
